Experimental data reported in ChEMBL document CHEMBL1148877, “Evaluation of 4'-substituted bicyclic pyridones as non-steroidal inhibitors of steroid 5alpha-reductase” (Bioorg Med Chem Lett, 2007).

Columns and labels:
[1] = target: T1, 3-oxo-5-alpha-steroid 4-dehydrogenase 1 (Homo sapiens) (UniProt P18405); test: Inhibition of steroid 5-alpha reductase type 1 expressed in HEK 293 cells at 10 uM; format: cell-based; conditions: HEK293
T1 sequence (whole entry): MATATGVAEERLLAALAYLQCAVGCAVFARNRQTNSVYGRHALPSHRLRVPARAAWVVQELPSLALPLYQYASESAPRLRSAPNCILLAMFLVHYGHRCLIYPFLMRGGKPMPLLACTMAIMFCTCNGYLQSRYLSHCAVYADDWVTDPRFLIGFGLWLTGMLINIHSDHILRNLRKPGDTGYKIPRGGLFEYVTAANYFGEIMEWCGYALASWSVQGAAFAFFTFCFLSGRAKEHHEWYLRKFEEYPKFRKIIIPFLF

[2] = target: T2, 3-oxo-5-alpha-steroid 4-dehydrogenase 2 (Homo sapiens) (UniProt P31213); test: Inhibition of steroid 5-alpha reductase type 2 expressed in HEK 293 cells at 10 uM; format: cell-based; conditions: HEK293
T2 sequence (whole entry): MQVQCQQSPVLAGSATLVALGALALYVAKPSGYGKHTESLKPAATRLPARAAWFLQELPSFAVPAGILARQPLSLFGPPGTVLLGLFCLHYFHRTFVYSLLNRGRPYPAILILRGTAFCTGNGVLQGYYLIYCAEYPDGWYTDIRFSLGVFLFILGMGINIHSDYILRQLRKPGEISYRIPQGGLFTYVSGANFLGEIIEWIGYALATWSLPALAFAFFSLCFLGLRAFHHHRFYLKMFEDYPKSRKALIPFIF

[3] = target: T3, 3-oxo-5-alpha-steroid 4-dehydrogenase 1 (Homo sapiens, UniProt P18405); test: Inhibition of steroid 5-alpha reductase type 1 expressed in HEK 293 cells; format: cell-based, HEK293
T3 sequence (P18405 whole entry): T1 sequence (whole entry)

[4] = target: T4, 3-oxo-5-alpha-steroid 4-dehydrogenase 2 (Homo sapiens, UniProt P31213); test: Inhibition of steroid 5-alpha reductase type 2 expressed in HEK 293 cells; format: cell-based, HEK293
T4 sequence (P31213 whole entry): T2 sequence (whole entry)

SMILES	inhibition [1] [%]	further results
C=CCNC(=O)COc1ccc(N2C=CC(=O)CC2C)cc1 (stereo unspecified)	8	inhibition [2]: 12%
CC(C)N(C(=O)COc1ccc(C2CCC(=O)N(C)C2)cc1)C(C)C (stereo unspecified)	6	–
CC(=O)SCCCCCCCCCCCCCCCC(=O)NCCOCCOC(=O)CC/C=C/CNC(=O)COc1ccc(-c2ccc(=O)n(C)c2)cc1	33	–
CC1CC(=O)C=CN1c1ccc(OCC(=O)N(C(C)C)C(C)C)cc1 (stereo unspecified)	3	–
CC(C)(C)NC(=O)[C@H]1CC[C@H]2[C@@H]3CC[C@H]4NC(=O)C=C[C@]4(C)[C@H]3CC[C@]12C [FINASTERIDE]	–	IC50 [3]: 453 nM; IC50 [4]: 25 nM
CC(=O)SCCCCCCCCCCCCCCCC(=O)NCCOC(=O)CC/C=C/CNC(=O)COc1ccc(-c2ccc(=O)n(C)c2)cc1	43	–

Further lines, with some results ahead:

inhibition [1] [%]	SMILES	further results
61	Cn1cc(-c2ccc(C(=O)Cc3ccccc3)cc2)ccc1=O	–
6	C=CCNC(=O)COc1ccc(-c2ccc(=O)n(C)c2)cc1	–
8	CC(C)NC(=O)COc1ccc(-c2ccc(=O)n(C)c2)cc1	–
